Reference: ChEMBL document CHEMBL4825690, “Synthesis and biological evaluation of chalcone-polyamine conjugates as novel vectorized agents in colorectal and prostate cancer chemotherapy” (Eur J Med Chem, 2021)
Activity calls are given as the source filed them. The rule behind the calls is not given here.

What was measured:
DU-145 [1] = assay: Antiproliferative activity against human DU145 cells assessed as reduction in cell viability incubated for 48 hr by MTT assay; format: functional, cell-based; conditions: DU-145, 48 h
PC-3 [2] = assay: Antiproliferative activity against human PC3 cells assessed as reduction in cell viability incubated for 48 hr by MTT assay; format: functional, cell-based; conditions: PC-3, 48 h
HT-29 [3] = assay: Antiproliferative activity against human HT29 cells assessed as reduction in cell viability incubated for 48 hr by MTT assay; format: functional, cell-based; conditions: HT-29, 48 h
HCT-116 [4] = assay: Antiproliferative activity against human HCT116 cells assessed as reduction in cell viability incubated for 48 hr by MTT assay; format: functional, cell-based; conditions: HCT-116, 48 h
HT-29 [5] = assay: Induction of cell cycle arrest in human HT-29 cells assessed as accumulation at sub-G1 phase at IC50 incubated for 48 hrs by RNaeA/propidium iodide based flow cytometry analysis (reference value: 0.12 %); format: functional
HT-29 [6] = assay: Induction of cell cycle arrest in human HT-29 cells assessed as accumulation at G1 phase at IC50 incubated for 48 hrs by RNaeA/propidium iodide based flow cytometry analysis (reference value: 54.39 %); format: functional
HT-29 [7] = assay: Induction of cell cycle arrest in human HT-29 cells assessed as accumulation at G2 phase at IC50 incubated for 48 hrs by RNaeA/propidium iodide based flow cytometry analysis (reference value: 13..16 %); format: functional
HCT-116 [8] = assay: Induction of cell cycle arrest in human HCT-116 cells assessed as accumulation at G2 phase at IC50 incubated for 48 hrs by RNaeA/propidium iodide based flow cytometry analysis (reference value: 17.76 %); format: functional
PC-3 [9] = assay: Induction of cell cycle arrest in human PC3 cells assessed as accumulation at sub-G1 phase at IC50 incubated for 48 hrs by RNaeA/propidium iodide based flow cytometry analysis (reference value: 0 %); format: functional
DU-145 [10] = assay: Induction of cell cycle arrest in human DU-145 cells assessed as accumulation at sub-G1 phase at IC50 incubated for 48 hrs by RNaeA/propidium iodide based flow cytometry analysis (reference value: 0 %); format: functional
DU-145 [11] = assay: Induction of cell cycle arrest in human DU-145 cells assessed as accumulation at G1 phase at IC50 incubated for 48 hrs by […]/propidium iodide based flow cytometry analysis (reference value: 45.5 %); format: functional
DU-145 [12] = assay: Induction of cell cycle arrest in human DU-145 cells assessed as accumulation at S phase at IC50 incubated for 48 hrs by RNaeA/propidium iodide based flow cytometry analysis (reference value: 38.44 %); format: functional
HT-29 [13] = assay: Induction of cell cycle arrest at G1 phase in human HT-29 cells assessed as reduction in Cyclin D1 expression by Western blot analysis; format: functional, cell-based
HT-29 [14] = assay: Induction of cell cycle arrest at G1 phase in human HT-29 cells assessed as reduction in CDK6 expression by Western blot analysis; format: functional, cell-based
HT-29 [15] = assay: Induction of cell cycle arrest at G1 phase in human HT-29 cells assessed as reduction in CDK2 expression by Western blot analysis; format: functional, cell-based
HCT-116 [16] = assay: Induction of cell cycle arrest in human HCT-116 cells assessed as increase in p21 expression by Western blot analysis; format: functional, cell-based
HT-29 [17] = assay: Induction of cell cycle arrest in human HT-29 cells assessed as increase in p21 expression by Western blot analysis; format: functional, cell-based
DU-145 [18] = assay: Induction of cell cycle arrest in human DU-145 cells assessed as effect on Cdc2 expression by Western blot analysis; format: functional, cell-based
HT-29 [19] = assay: Induction of apoptosis in human HT-29 cells assessed as early apoptotic cells incubated for 48 hrs by annexin-V/FITC and propidium iodide staining based flow cytometry analysis (reference value: 3.37%); format: functional
HT-29 [20] = assay: Induction of apoptosis in human HT-29 cells assessed as necrotic cells incubated for 48 hrs by annexin-V/FITC and propidium iodide staining based flow cytometry analysis (reference value: 3.52%); format: functional
HCT-116 [21] = assay: Induction of apoptosis in human HCT-116 cells assessed as early apoptotic cells incubated for 48 hrs by annexin-V/FITC and propidium iodide staining based flow cytometry analysis (reference value: 5.21 %); format: functional
HCT-116 [22] = assay: Induction of apoptosis in human HCT-116 cells assessed as late apoptotic cells incubated for 48 hrs by annexin-V/FITC and propidium iodide staining based flow cytometry analysis (reference value: 7.22 %); format: functional
PC-3 [23] = assay: Induction of apoptosis in human PC-3 cells assessed as viable cells incubated for 48 hrs by annexin-V/FITC and propidium iodide staining based flow cytometry analysis (reference value: 92.95 %); format: functional
PC-3 [24] = assay: Induction of apoptosis in human PC-3 cells assessed as late apoptotic cells incubated for 48 hrs by annexin-V/FITC and propidium iodide staining based flow cytometry analysis (reference value: 2.13 %); format: functional
PC-3 [25] = assay: Induction of apoptosis in human PC-3 cells assessed as necrotic cells incubated for 48 hrs by annexin-V/FITC and propidium iodide staining based flow cytometry analysis (reference value: 0.54 %); format: functional
DU-145 [26] = assay: Induction of apoptosis in human DU-145 cells assessed as viable cells incubated for 48 hrs by annexin-V/FITC and propidium iodide staining based flow cytometry analysis (reference value: 94.13 %); format: functional
DU-145 [27] = assay: Induction of apoptosis in human DU-145 cells assessed as late apoptotic cells incubated for 48 hrs by annexin-V/FITC and propidium iodide staining based flow cytometry analysis (reference value: 2.56 %); format: functional
HT-29 [28] = assay: Induction of apoptosis in human HT-29 cells assessed as decrease in pro-caspase-3 expression by Western blot assay; format: functional, cell-based
HCT-116 [29] = assay: Induction of apoptosis in human HCT-116 cells assessed as decrease in pro-caspase-3 expression by Western blot assay; format: functional, cell-based
PC-3 [30] = assay: Induction of apoptosis in human PC-3 cells assessed as decrease in pro-caspase-3 expression by Western blot assay; format: functional, cell-based
HCT-116 [31] = assay: Induction of apoptosis in human HCT-116 cells assessed as increase in caspase-3 level by Western blot assay; format: functional, cell-based
DU-145 [32] = assay: Induction of apoptosis in human DU-145 cells assessed as increase in cleaved PARP protein expression by Western blot assay; format: functional, cell-based
HT-29 [33] = assay: Induction of apoptosis in human HT-29 cells assessed as decrease in PARP protein expression by Western blot assay; format: functional, cell-based
HCT-116 [34] = assay: Induction of apoptosis in human HCT-116 cells assessed as decrease in PARP protein expression by Western blot assay; format: functional, cell-based
DU-145 [35] = assay: Induction of apoptosis in human DU-145 cells assessed as decrease in PARP protein expression by Western blot assay; format: functional, cell-based
HCT-116 [36] = assay: Induction of apoptosis in human HCT-116 cells assessed as increase in DNA fragmentation after 48 hrs by ELISA relative to control; format: functional
PC-3 [37] = assay: Induction of apoptosis in human PC-3 cells assessed as increase in DNA fragmentation after 48 hrs by ELISA relative to control; format: functional
Tubulin (Homo sapiens) = Tubulin (Homo sapiens) (UniProt P68371+Q9H4B7+P0DPH7+P68366+Q13509+Q71U36+P04350+Q3ZCM7+P07437+P68363+Q9BQE3+Q6PEY2+Q13885+Q9BVA1+Q9BUF5); assay: Inhibition of tubulin polymerization in human HeLa cells measured after 2 hrs by fluorescent immunostaining method; format: cell-based

IC50 (DU-145 [1]): 8.86 µM
IC50 (PC-3 [2]): 13.7 µM
IC50 (HT-29 [3]): 10.8 µM
IC50 (HCT-116 [4]): 8.13 µM
inhibition (Tubulin (Homo sapiens)): inactive
SMILES: COc1cc(C(=O)/C=C/c2ccc(OCCCNCCCNCCCCN)cc2)cc(OC)c1OC
Activity (HT-29 [5]): 7.07%
Activity (HT-29 [6]): 60.65%
Activity (HT-29 [7]): 13.32%
Activity (HCT-116 [8]): 19.93%
Activity (PC-3 [9]): 26.99%
Activity (DU-145 [10]): 9.28%
Activity (DU-145 [11]): 28.11%
Activity (DU-145 [12]): 37.34%
Activity (HT-29 [13]): Active
Activity (HT-29 [14]): Active
Activity (HT-29 [15]): Active
Activity (HCT-116 [16]): Active
Activity (HT-29 [17]): Active
Activity (DU-145 [18]): inactive
Activity (HT-29 [19]): 11.04%
Activity (HT-29 [20]): 0.6%
Activity (HCT-116 [21]): 22.92%
Activity (HCT-116 [22]): 21.6%
Activity (PC-3 [23]): 50.47%
Activity (PC-3 [24]): 12.65%
Activity (PC-3 [25]): 2.63%
Activity (DU-145 [26]): 38.96%
Activity (DU-145 [27]): 8.74%
Activity (HT-29 [28]): Active
Activity (HCT-116 [29]): Active
Activity (PC-3 [30]): Active
Activity (HCT-116 [31]): Active
Activity (DU-145 [32]): Active
Activity (HT-29 [33]): Active
Activity (HCT-116 [34]): Active
Activity (DU-145 [35]): Active
fold change (FC) (HCT-116 [36]): 4.72
fold change (FC) (PC-3 [37]): 6.53
